Data set [1] concerns the target Mushroom tyrosinase. Kind of data set: Mushroom tyrosinase inhibition, colorimetric detection of dopachrome from L-tyrosine. The class given is biochemical. The note with it: for IC50 (result in words): L-tyrosine substrate, pH 6.8, 37° C., absorbance at 475 nm 30 min after initiation; for inhibitory activity on tyrosinase: in vitro, FIG. 1, FIG. 2 and peptide screen. The protocol: Mushroom tyrosinase, L-tyrosine and other chemicals for the enzymatic reaction were obtained from Sigma-Aldrich. […] All synthetic peptides were between 3 and 10 amino acids in length and were synthesized using tBoc and/or Fmoc solid phase chemistry.
Inhibition of tyrosinase by experimental peptides was determined by colorimetric detection of dopachrome, the reaction product of the substrate L-tyrosine. Mushroom tyrosinase, L-tyrosine, and a potassium phosphate buffer (pH 6.8) were added to 96-well plates containing short sequence peptides dissolved in 5% DMSO and incubated at 37° C. The absorbance at 475 nm was measured using a BIO-TEK plate reader 30 min after reaction initiation. Each experiment was performed in triplicate on 3 separate occasions. The protocol is described in further detail in Piao et al., “Mushroom Tyrosinase Inhibition Activity of Some Chromones,” Chem. Pharm. Bull. […]: 309-311 (2002), and in Pomerants, J. Biol. Chem. 238:2351-2357 (1963).
Enzyme kinetics were calculated using the Michaelis-Menton equation by observing changes in reaction velocity accompanying substrate concentrations of 0.5, 1, 2, and 4 mM L-tyrosine. Once initial reaction velocities were obtained, Lineweaver-Burke plots were created to calculate Km, Vmax, and to determine the mode of enzymatic inhibition.
Tyrosinase inhibition activity was determined in vitro using L-tyrosine as substrate with a modified method from Piao L Z, Park H R, Park Y K, Lee S K, Park J H, Park M K. 2002. Mushroom Tyrosinase Inhibition Activity of Some Chromones. Chem. Pharm Bull 50(3): 309-311.
The concentration of enzyme, substrate and inhibitor was denoted as [E], [S] and […], respectively. 80 microliters of 0.067 M potassium phosphate buffer (pH 6.8), 40 microliters of L-tyrosine in 0.067 M potassium phosphate buffer (pH 6.8), 40 microliters of inhibitor in 5% DMSO solution, and 40 microliters of mushroom tyrosinase solution were added to a 96-well microplate, to make the final concentration of each reagent to be: 0.2 mg/ml [S], and 96 units/ml [E], with varying [I]. 5% DMSO solution instead of an inhibitor solution was added to a blank solution and adjusted to the total volume of 200 microliters as control. The assay mixture was incubated at 37° C. The amount of dopachrome produced in the reaction mixture was measured at 475 nm in a microplate reader at different time periods. The percentage of inhibition of tyrosinase activity was calculated as follows: Inhibition(%)=[(A−B)−C−D)]/(A−B)×100 • A: absorbance of blank solution after incubation • B: absorbance of blank solution before incubation • C: absorbance of sample solution after incubation • D: absorbance of sample solution before incubation

Data set [2] has as its system Primary human melanocytes. The note with it: for effect on melanocyte proliferation rates: FIG. 3. The protocol: Primary human melanocytes, passage 3, were kindly obtained from Dr. Todd Ridky in the department of dermatology, Stanford University. Cells were cultured in Medium 254 (Cascade Biologics) supplemented with Human Melanocyte Growth Supplement (HMGS, Cascade Biologics). They were grown in a humidified atmosphere with 5% CO2 at 37° C. Cell plating densities were arranged that those cells were in log phase of growth for the duration of incubation with test samples. Subcultures of cells were plated at a density of 4×10^4 cells/cm^2. Approximately 24 h later, fresh medium and test samples were added. Cells were harvested 7 d after test samples addition, replaced with fresh medium and test samples every two days.
Cell viability was determined using WST-1 Cell Proliferation Kit (Roche). Cells were plated at 1×10^5/well (24-well plates). Twenty-four hours after plating, test samples were added and cultures were incubated for an additional 7 d. At the end of the treatment period, 50 μl WST-1 was added to each well. The plates were placed at 37° C. for 4 h in the dark and the absorbance at 450 nm was read using microplate. Usually, 3 replicate wells were measured for each group to be tested. Wells containing medium but no cells served as controls. Cell viability was calculated according to the equation: cell viability=absorbance(sample tested)/absorbance(medium only)×100%.
The concentrations of HQ tested on melanocytes were 1, 10, 100, and 1000 μM, while those of YR peptide were 1, 10, and 100 μM.

Data set [3] relates to Human melanocytes. Kind of data set: Melanin content measurement in melanocytes. In kind it is cell-based. The note with it: FIG. 4; for melanin content: 10 μM (YR peptide: similar concentration), 7 days. The protocol:
Human melanocytes were cultured in 6-well plates and treated with individual test samples for 7 d. After washes in PBS, cells were detached by short incubation in trypsin/EDTA (0.25%/0.1% in PBS). An aliquot was used for cell count. The remaining cells were sonicated and incubated overnight in 500 μl 1 M NaOH at 37° C., avoid light. Melanin concentrations were calculated by comparison of the OD at 475 nm of unknown samples with a standard curve obtained with synthetic melanin.
To provide more direct evidence that the YR peptide inhibits melanogenesis, we determined its effects on melanin production in melanocytes. The contents of melanin in melanocytes treated with no addition, YR peptide (P4) or HQ for 7 days were determined with spectrophotometer and compared with melanin standard curve.

For data set [4], the target named is T1, Cellular tyrosinase (Homo sapiens, UniProt P14679).
T1 construct: endogenous in cells; host or cells: primary human melanocytes, passage 3
T1 sequence (P14679 19-529): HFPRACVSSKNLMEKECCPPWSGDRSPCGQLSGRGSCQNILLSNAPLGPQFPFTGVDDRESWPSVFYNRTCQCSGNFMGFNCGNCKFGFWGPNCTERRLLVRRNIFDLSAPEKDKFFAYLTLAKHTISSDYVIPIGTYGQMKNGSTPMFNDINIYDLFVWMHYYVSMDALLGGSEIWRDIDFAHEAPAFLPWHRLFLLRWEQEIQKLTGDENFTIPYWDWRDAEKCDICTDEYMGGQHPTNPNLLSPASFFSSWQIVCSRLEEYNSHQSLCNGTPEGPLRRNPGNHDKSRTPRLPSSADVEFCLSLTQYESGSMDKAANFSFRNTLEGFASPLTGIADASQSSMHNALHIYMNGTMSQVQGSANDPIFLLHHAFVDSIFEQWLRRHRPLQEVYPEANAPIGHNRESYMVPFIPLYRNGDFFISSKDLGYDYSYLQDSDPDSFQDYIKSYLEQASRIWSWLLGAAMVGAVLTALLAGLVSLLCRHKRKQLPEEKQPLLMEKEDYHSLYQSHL
Kind of data set: Cellular tyrosinase activity using L-DOPA as the substrate. The class given is cell-based. The note with it: for reduction of cellular tyrosinase activity: 7 d treatment of melanocytes. The protocol:
Cellular tyrosinase activity using L-DOPA as the substrate was assayed by the method of Cheng K T, Hsu F L, Chen S H, Hsieh P K, Huang H S, Lee C K, Lee M H. 2007. […] Chem. Pharm Bull 55(5): 757-761.
Human melanocytes were cultured in 6-well plates. After treatment with individual test samples for 7 d, the cells were washed with phosphate-buffered saline (PBS) and lysed with phosphate buffer, pH 6.8, containing 1% Triton X-100. After sonication, lysates were clarified by centrifugation at 10000 g for 10 min. After determination of protein content with a Bio-Rad protein assay kit, lysates were added to 96 well culture plate containing equal amounts of protein (40 μg), and adjusted with lysis buffer to reach 150 μl in each well. 75 μl of 10 mM L-DOPA dissolved in lysis buffer was added to each well. The culture plate was incubated at 37° C. for 30 min, and then read with the spectrophotometer at 475 nm.
Tyrosinase inhibitory activity was calculated with the following formula: tyrosinase inhibition (%)=[1−(O.D.475 of sample/O.D.475 of control)]×100%.
After centrifugation and protein calculation, certain volume of supernatant for each sample was transferred to 96 well culture plate by compensating a certain protein content in each well, and adjusted the volume of each well to 150 μl with 0.067 M of phosphate buffer (pH 6.8). 75 μl of 10 mM L-DOPA dissolved in phosphate buffer (pH 6.8) was added to each well. The culture plate was incubated at 37° C. for 30 min, and then read with the spectrophotometer at 475 nm.

For data set [5], the target named is tyrosinase. The note with it: read-out: published IC50; literature value; cited from earlier work.

Where two headings read alike, the source gives them in different places.

For the compound “VLLK [control peptide; inner standard in stability testing]”, in data set [1], the “IC50 (result in words)” value was “no effect” and the “inhibitory activity on tyrosinase” value is recorded as “only the YR peptide had inhibitory activity”.

Turning to YRSRKYSSWY, the “effect on melanocyte proliferation rates” value in data set [2] (1, 10 and 100 μM, listed as P4) is recorded as “did not observe any inhibitory effects”; in data set [2] (1, 10 and 100 μM, listed as YR peptide), “did not inhibit cell proliferation”. In addition, in data set [2] (up to 100 μM, treatment for 7 days), the toxicity to melanocytes entry is reported as “No toxicity was observed”. Further, the melanin content result in data set [3] was “significantly reduced melanin content, to a greater extent than HQ”. In data set [3], the “melanin synthesis in human melanocytes” value is recorded as “inhibited melanin synthesis”. For the same compound, the “reduction of cellular tyrosinase activity” value in data set [4] (1 μM) is listed as 14.5%; in data set [4] (10 μM), 24.1%; in data set [4] (100 μM) it was 37.4%. Moreover, the “inhibition of tyrosinase activity, in words” value in data set [4] (FIG. 5, after incubation of melanocytes) is given as “comparable to that of HQ”. Also, the “inhibitory activity on tyrosinase” value in data set [1] is on record as “had inhibitory activity on tyrosinase”.

In the case of KFEKKFEK, the “inhibitory activity on tyrosinase” value in data set [1] is on record as “had inhibiting activity”.

Regarding `Oc1ccc(O)cc1` [HQ, Hydroquinone, reference compound], the “effect on melanocyte proliferation rates” value in data set [2] (up to 10 μM) is on record as “did not show inhibitory effects”. The melanin content result in data set [3] is “slightly reduced melanin content”. In addition, the “reduction of cellular tyrosinase activity” value in data set [4] (10 μM) is 28.8%. Besides, in data set [5], the IC50 was about 700 µM.

Consider KFEFKFEF, for which, in data set [1], the “IC50 (result in words)” value is listed as “no effect” and the “inhibitory activity on tyrosinase” value is “only the former peptide had inhibiting activity”.

For orientation: IC50 means the midpoint of a concentration-inhibition curve.
